Data taken from ChEMBL document CHEMBL4613209, “Quinolone hybrids and their anti-cancer activities: An overview” (Eur J Med Chem, 2019).

Each molecule was assayed on A-431 (assay: Cytotoxicity against human A431 cells assessed as reduction in cell viability by MTT assay). Details: not given.
Assay type: functional, cell-based

Row | Compound | IC50
1 | CCn1cc(C(=O)O)c(=O)c2cc(F)c(N3CCN(CC(=O)c4ccc(Cl)s4)CC3)nc21 | ≥ 100 µM
2 | O=C(O)c1cn(C2CC2)c2cc(N3CCN(C/C(=N/O)c4ccc(Cl)s4)CC3)c(F)cc2c1=O | ≤ 20 µM
3 | O=C(CN1CCN(c2cc3c(cc2F)c(=O)c(C(=O)O)cn3C2CC2)CC1)c1ccc(Cl)s1 | ≥ 100 µM
4 | CCn1cc(C(=O)O)c(=O)c2cc(F)c(N3CCN(CC(=O)c4ccc(Cl)s4)CC3)cc21 | ≥ 100 µM

What follows are molecules tested on MCF7 (assay: Cytotoxicity against human MCF7 cells assessed as reduction in cell viability by MTT assay). Details: not given.
Assay type: functional, cell-based

Row | Compound | IC50
5 | CCn1cc(C(=O)O)c(=O)c2cc(F)c(N3CCN(CC(=O)c4ccc(Cl)s4)CC3)nc21 | ≥ 100 µM
6 | O=C(O)c1cn(C2CC2)c2cc(N3CCN(C/C(=N/O)c4ccc(Cl)s4)CC3)c(F)cc2c1=O | ≤ 20 µM
7 | O=C(CN1CCN(c2cc3c(cc2F)c(=O)c(C(=O)O)cn3C2CC2)CC1)c1ccc(Cl)s1 | ≥ 100 µM
8 | CCn1cc(C(=O)O)c(=O)c2cc(F)c(N3CCN(CC(=O)c4ccc(Cl)s4)CC3)cc21 | ≥ 100 µM

What follows are molecules tested on HL-60 (assay: Cytotoxicity against human HL60 cells assessed as reduction in cell viability). Details: not given.
Assay type: functional, cell-based

Row | Compound | IC50
9 | C[C@H]1COc2c(N3CCN(C)CC3)c(F)cc3c(=O)c(-c4nn5c(-c6cn(C7CC7)c7cc(N8CCNCC8)c(F)cc7c6=O)nnc5s4)cn1c23 | 0.12 to 5.2 µM
10 | CCN1CCN(c2cc3c(nc2F)c(=O)c(-c2nn4c(-c5cn(C6CC6)c6cc(N7CCN(C)CC7)c(F)cc6c5=O)nnc4s2)cn3C2CC2)CC1 | 0.12 to 5.2 µM
11 | CC1COc2c(N3CCN(C)CC3)c(F)cc3c(=O)c(-c4nn5c(-c6cn(C7CC7)c7cc(N8CCNCC8)c(F)cc7c6=O)nnc5s4)cn1c23 (stereo not given) | 14.2 to 23.7 µM
12 | CC1COc2c(N3CCN(C)CC3)c(F)cc3c(=O)c(-c4nnc(-c5cn(C6CC6)c6cc(N7CCN(C)CC7)c(F)cc6c5=O)o4)cn1c23 (stereo not given) | 0.26 to 14.5 µM
13 | CCn1cc(-c2nnc(-c3cn(C4CC4)c4cc(N5CCNCC5)c(F)cc4c3=O)o2)c(=O)c2cc(F)c(N3CCNCC3)cc21 | 0.26 to 14.5 µM

Each molecule was assayed on SW480 (assay: Cytotoxicity against human SW480 cells assessed as reduction in cell viability by MTT assay). Details: not given.
Assay type: functional, cell-based

Row | Compound | IC50
14 | CCn1cc(C(=O)O)c(=O)c2cc(F)c(N3CCN(CC(=O)c4ccc(Cl)s4)CC3)nc21 | ≥ 100 µM
15 | O=C(O)c1cn(C2CC2)c2cc(N3CCN(C/C(=N/O)c4ccc(Cl)s4)CC3)c(F)cc2c1=O | ≤ 20 µM
16 | O=C(CN1CCN(c2cc3c(cc2F)c(=O)c(C(=O)O)cn3C2CC2)CC1)c1ccc(Cl)s1 | ≥ 100 µM
17 | CCn1cc(C(=O)O)c(=O)c2cc(F)c(N3CCN(CC(=O)c4ccc(Cl)s4)CC3)cc21 | ≥ 100 µM

Each molecule was assayed on SK-MEL3 (assay: Cytotoxicity against human SK-MEL-3 cells assessed as reduction in cell viability by MTT assay). Details: not given.
Assay type: functional, cell-based

Row | Compound | IC50
18 | CCn1cc(C(=O)O)c(=O)c2cc(F)c(N3CCN(CC(=O)c4ccc(Cl)s4)CC3)nc21 | ≥ 100 µM
19 | O=C(O)c1cn(C2CC2)c2cc(N3CCN(C/C(=N/O)c4ccc(Cl)s4)CC3)c(F)cc2c1=O | ≤ 20 µM
20 | O=C(CN1CCN(c2cc3c(cc2F)c(=O)c(C(=O)O)cn3C2CC2)CC1)c1ccc(Cl)s1 | ≥ 100 µM
21 | CCn1cc(C(=O)O)c(=O)c2cc(F)c(N3CCN(CC(=O)c4ccc(Cl)s4)CC3)cc21 | ≥ 100 µM

These molecules were tested on CHO (assay: Cytotoxicity against CHO cells assessed as reduction in cell viability). Details: Cricetulus griseus.
Assay type: functional, cell-based

Row | Compound | IC50
22 | C[C@H]1COc2c(N3CCN(C)CC3)c(F)cc3c(=O)c(-c4nn5c(-c6cn(C7CC7)c7cc(N8CCNCC8)c(F)cc7c6=O)nnc5s4)cn1c23 | 0.12 to 5.2 µM
23 | CCN1CCN(c2cc3c(nc2F)c(=O)c(-c2nn4c(-c5cn(C6CC6)c6cc(N7CCN(C)CC7)c(F)cc6c5=O)nnc4s2)cn3C2CC2)CC1 | 0.12 to 5.2 µM
24 | CC1COc2c(N3CCN(C)CC3)c(F)cc3c(=O)c(-c4nn5c(-c6cn(C7CC7)c7cc(N8CCNCC8)c(F)cc7c6=O)nnc5s4)cn1c23 (stereo not given) | 14.2 to 23.7 µM
25 | CC1COc2c(N3CCN(C)CC3)c(F)cc3c(=O)c(-c4nnc(-c5cn(C6CC6)c6cc(N7CCN(C)CC7)c(F)cc6c5=O)o4)cn1c23 (stereo not given) | 0.26 to 14.5 µM
26 | CCn1cc(-c2nnc(-c3cn(C4CC4)c4cc(N5CCNCC5)c(F)cc4c3=O)o2)c(=O)c2cc(F)c(N3CCNCC3)cc21 | 0.26 to 14.5 µM

These molecules were tested on L1210 (assay: Cytotoxicity against mouse L1210 cells assessed as reduction in cell viability). Details: not given.
Assay type: functional, cell-based

Row | Compound | IC50
27 | C[C@H]1COc2c(N3CCN(C)CC3)c(F)cc3c(=O)c(-c4nn5c(-c6cn(C7CC7)c7cc(N8CCNCC8)c(F)cc7c6=O)nnc5s4)cn1c23 | 0.12 to 5.2 µM
28 | CCN1CCN(c2cc3c(nc2F)c(=O)c(-c2nn4c(-c5cn(C6CC6)c6cc(N7CCN(C)CC7)c(F)cc6c5=O)nnc4s2)cn3C2CC2)CC1 | 0.12 to 5.2 µM
29 | CC1COc2c(N3CCN(C)CC3)c(F)cc3c(=O)c(-c4nn5c(-c6cn(C7CC7)c7cc(N8CCNCC8)c(F)cc7c6=O)nnc5s4)cn1c23 (stereo not given) | 14.2 to 23.7 µM
30 | CC1COc2c(N3CCN(C)CC3)c(F)cc3c(=O)c(-c4nnc(-c5cn(C6CC6)c6cc(N7CCN(C)CC7)c(F)cc6c5=O)o4)cn1c23 (stereo not given) | 0.26 to 14.5 µM
31 | CCn1cc(-c2nnc(-c3cn(C4CC4)c4cc(N5CCNCC5)c(F)cc4c3=O)o2)c(=O)c2cc(F)c(N3CCNCC3)cc21 | 0.26 to 14.5 µM

Each molecule was assayed on EJ (assay: Cytotoxicity against human EJ cells assessed as reduction in cell viability by MTT assay). Details: not given.
Assay type: functional, cell-based

Row | Compound | IC50
32 | CCn1cc(C(=O)O)c(=O)c2cc(F)c(N3CCN(CC(=O)c4ccc(Cl)s4)CC3)nc21 | ≥ 100 µM
33 | O=C(O)c1cn(C2CC2)c2cc(N3CCN(C/C(=N/O)c4ccc(Cl)s4)CC3)c(F)cc2c1=O | ≤ 20 µM
34 | O=C(CN1CCN(c2cc3c(cc2F)c(=O)c(C(=O)O)cn3C2CC2)CC1)c1ccc(Cl)s1 | ≥ 100 µM
35 | CCn1cc(C(=O)O)c(=O)c2cc(F)c(N3CCN(CC(=O)c4ccc(Cl)s4)CC3)cc21 | ≥ 100 µM
